Assays:
[1] = system: control sera (pooled serum of ten healthy LUMC hospital workers; commercial negative donor pooled serum from the Dutch bloodbank); format: binding, human; parameters: Binding of Control serum LUMC to linear peptides / Binding of Control serum Blood-bank to linear peptides / Binding of Control serum LUMC to looped peptides / Binding of Control Serum Blood-Bank to Looped peptides / Binding of Control serum LUMC to linear peptides of the protein M of SARS-CoV Urbani / Binding of Control serum Blood-bank to linear peptides of the protein M of SARS-CoV Urbani / Binding of Control serum LUMC to looped peptides of the protein M of SARS-CoV Urbani / Binding of Control Serum Blood-Bank to Looped peptides of the protein M of SARS-CoV Urbani: unit not given here
[2] = system: recombinant human anti-SARS-CoV antibody 03-018; format: binding; parameters: Binding of antibody 03-018 to linear peptides of the N protein of SARS-CoV Urbani / Binding of antibody 03-018 to looped/cyclic peptides of the N protein of SARS-CoV Urbani: unit not given here
[3] = system: rabbit serum obtained by immunizing a rabbit with the SARS-CoV strain Frankfurt 1; format: binding; parameters: Binding of a rabbit serum to linear peptides / Binding of a rabbit serum to looped peptides / Rabbit serum linear peptides / Rabbit serum looped peptides / Binding of a rabbit serum to linear peptides of protein N of SARS-CoV Urbani (Rabbit serum linear peptides) / Binding of a rabbit serum to looped/cyclic peptides of protein N of SARS-CoV Urbani (Rabbit serum looped peptides): unit not given here
[4] = system: antibodies in sera from SARS patients (sera 1a, 1b, 2, 6, 37, 62, London, SARS-yellow, SARS-green); format: binding, human; parameters: Binding of serum 6 to linear peptides of protein X1 of SARS-CoV Urbani / Binding of serum 37 to linear peptides of protein X1 of SARS-CoV Urbani / Binding of serum 6 to looped/cyclic peptide (PEPSCAN-ELISA) / Binding of serum 37 to looped/cyclic peptide (PEPSCAN-ELISA) / Binding of serum 37 to looped/cyclic peptides of protein X1 of SARS-CoV Urbani / Binding of serum 6 to linear peptides of protein X2 / Binding of serum 37 to linear peptides of protein X2 / Binding of serum 37 to looped/cyclic peptides of protein X2 of SARS-CoV Urbani / Binding of serum 6 to linear peptides of protein M of SARS-CoV Urbani / Binding of serum 37 to linear peptides of protein M of SARS-CoV Urbani / Binding of serum 6 to looped/cyclic peptides of protein M of SARS-CoV Urbani / Binding of serum 37 to looped/cyclic peptides of protein M of SARS-CoV Urbani / Binding of serum 6 to linear peptides of protein X3 of SARS-CoV Urbani / Binding of serum 37 to linear peptides of protein X3 of SARS-CoV Urbani / Binding of serum 37 to looped/cyclic peptides of protein X3 of SARS-CoV Urbani / Binding of serum 6 to linear peptides of protein X4 of SARS-CoV Urbani / Binding of serum 37 to linear peptides of protein X4 of SARS-CoV Urbani / Binding of serum 37 to looped/cyclic peptides of protein X4 of SARS-CoV Urbani / Binding of serum 6 to linear peptides of protein X5 of SARS-CoV Urbani / Binding of serum 37 to linear peptides of protein X5 of SARS-CoV Urbani / Binding of serum 37 to looped/cyclic peptides of protein X5 of SARS-CoV Urbani / Binding of serum 6 to linear peptides of protein N of SARS-CoV Urbani / Binding of serum 37 to linear peptides of protein N of SARS-CoV Urbani / Binding of serum 6 to linear peptide (PEPSCAN-ELISA) / Binding of serum 1a to looped/cyclic peptides of protein N of SARS-CoV Urbani / Binding of serum 1b to looped/cyclic peptides of protein N of SARS-CoV Urbani / Binding of serum 2 to looped/cyclic peptides of protein N of SARS-CoV Urbani / Binding of serum 6 to looped/cyclic peptides of protein N of SARS-CoV Urbani / Binding of serum 37 to looped/cyclic peptides of protein N of SARS-CoV Urbani / Binding of serum 62 to looped/cyclic peptides of protein N of SARS-CoV Urbani / Binding of serum London to looped/cyclic peptides of protein N of SARS-CoV Urbani / Binding of serum SARS-green to looped/cyclic peptides of protein N of SARS-CoV Urbani: unit not given here

Row | Sequence | Binding of Control Serum Blood-Bank to Looped peptides [1] | Binding of Control serum Blood-bank to linear peptides [1] | Binding of Control serum LUMC to linear peptides [1] | Binding of Control serum LUMC to looped peptides [1] | Binding of antibody 03-018 to linear peptides of the N protein of SARS-CoV Urbani [2] | Binding of antibody 03-018 to looped/cyclic peptides of the N protein of SARS-CoV Urbani [2] | Binding of a rabbit serum to linear peptides of protein N of SARS-CoV Urbani (Rabbit serum linear peptides) [3] | Binding of a rabbit serum to looped/cyclic peptides of protein N of SARS-CoV Urbani (Rabbit serum looped peptides) [3] | Binding of serum 1a to linear peptides of protein N of SARS-CoV Urbani [4] | Binding of serum 1a to looped/cyclic peptides of protein N of SARS-CoV Urbani [4] | Binding of serum 1b to linear peptides of protein N of SARS-CoV Urbani [4] | Binding of serum 1b to looped/cyclic peptides of protein N of SARS-CoV Urbani [4] | Binding of serum 2 to linear peptides of protein N of SARS-CoV Urbani [4] | Binding of serum 2 to looped/cyclic peptides of protein N of SARS-CoV Urbani [4] | Binding of serum 6 to looped/cyclic peptides of protein N of SARS-CoV Urbani [4] | Binding of serum 37 to looped/cyclic peptides of protein N of SARS-CoV Urbani [4] | Binding of serum 62 to looped/cyclic peptides of protein N of SARS-CoV Urbani [4] | Binding of serum London to looped/cyclic peptides of protein N of SARS-CoV Urbani [4] | Binding of serum SARS-green to looped/cyclic peptides of protein N of SARS-CoV Urbani [4] | Binding of serum SARS-yellow to looped/cyclic peptides of protein N of SARS-CoV Urbani [4] | also measured
1 | SPRWYFYYLGTGPEA | 0.8 | 0.7 | 0.6 | 0.8 | 0.1 | 0.2 | 0.2 | 0.6 | 0.3 | 0.6 | 0.2 | 0.3 | 0.2 | 0.5 | 0.4 | 0.9 | 1.1 | 0.7 | 0.6 | 0.7 | Binding of serum 6 to linear peptides of protein N of SARS-CoV Urbani [4]: 0.2; Binding of serum 37 to linear peptides of protein N of SARS-CoV Urbani [4]: 0.9; Binding of serum 62 to linear peptides of protein N of SARS-CoV Urbani [4]: 0.9; Binding of serum London to linear peptides of protein N of SARS-CoV Urbani [4]: 0.5; Binding of serum SARS-green to linear peptides of protein N of SARS-CoV Urbani [4]: 0.6; Binding of serum SARS-yellow to linear peptides of protein N of SARS-CoV Urbani [4]: 0.6
2 | SRGGSQASSRSSSRS | 0.5 | 0.7 | 0.6 | 0.6 | 0.1 | 0.2 | 0.2 | 0.5 | – | 0.4 | – | 0.3 | – | 0.3 | 0.3 | 0.5 | 0.3 | 0.3 | 0.2 | 0.2 | Binding of serum 1a to linear peptide (PEPSCAN-ELISA) [4]: 0.3; Binding of serum 1b to linear peptide (PEPSCAN-ELISA) [4]: 0.1; Binding of serum 2 to linear peptide (PEPSCAN-ELISA) [4]: 0.3; Binding of serum 6 to linear peptide (PEPSCAN-ELISA) [4]: 0.4; Binding of serum 37 to linear peptide (PEPSCAN-ELISA) [4]: 0.6; Binding of serum 62 to linear peptide (PEPSCAN-ELISA) [4]: 0.7; Binding of serum London to linear peptide (PEPSCAN-ELISA) [4]: 0.4; Binding of serum SARS-green to linear peptide (PEPSCAN-ELISA) [4]: 0.1; Binding of serum SARS-yellow to linear peptide (PEPSCAN-ELISA) [4]: 0.9
3 | SRIGMEVTPSGTWLT | – | – | – | – | 0.1 | 0.2 | 0.1 | 0.4 | 0.2 | 0.3 | 0.1 | 0.2 | 0.2 | 0.4 | 0.2 | 0.5 | 0.5 | 0.4 | 0.5 | 0.4 | Control Serum Blood-Bank Looped peptides [1]: 0.6; Control serum Blood-bank linear peptides [1]: 0.8; Control serum LUMC linear peptides [1]: 0.6; Control serum LUMC looped peptides [1]: 0.6; Binding of serum 6 to linear peptides of protein N of SARS-CoV Urbani [4]: 0.2; Binding of serum 37 to linear peptides of protein N of SARS-CoV Urbani [4]: 0.7; Binding of serum 62 to linear peptides of protein N of SARS-CoV Urbani [4]: 0.6; Binding of serum London to linear peptides of protein N of SARS-CoV Urbani [4]: 0.5; Binding of serum SARS-green to linear peptides of protein N of SARS-CoV Urbani [4]: 0.4; Binding of serum SARS-yellow to linear peptides of protein N of SARS-CoV Urbani [4]: 0.6
4 | SRSRGNSRNSTPGSS | 0.5 | 0.7 | 0.5 | 0.4 | 0.1 | 0.2 | 0.3 | 0.7 | – | 0.5 | – | 0.4 | – | 0.3 | 0.1 | 0.3 | 0.3 | 0.3 | 0.0 | 0.0 | Binding of serum 1a to linear peptide (PEPSCAN-ELISA) [4]: 1.0; Binding of serum 1b to linear peptide (PEPSCAN-ELISA) [4]: 0.6; Binding of serum 2 to linear peptide (PEPSCAN-ELISA) [4]: 0.3; Binding of serum 6 to linear peptide (PEPSCAN-ELISA) [4]: 0.2; Binding of serum 37 to linear peptide (PEPSCAN-ELISA) [4]: 0.7; Binding of serum 62 to linear peptide (PEPSCAN-ELISA) [4]: 0.7; Binding of serum London to linear peptide (PEPSCAN-ELISA) [4]: 0.5; Binding of serum SARS-green to linear peptide (PEPSCAN-ELISA) [4]: 0.4; Binding of serum SARS-yellow to linear peptide (PEPSCAN-ELISA) [4]: 0.6

— patent US20070128217A1 (priority 2003, published 2007)
